The record followed here is paper PMC7022392, “Chemoenzymatic Synthesis of Enantiomeric, Bicyclic δ-Halo-γ-lactones with a Cyclohexane Ring, Their Biological Activity and Interaction with Biological Membranes” (Biomolecules, 2020).

One may read the IC50 as the concentration that gives 50% inhibition. What is called melting point is the temperature of the solid-liquid transition.

Converted amounts (≈) assume the structure as drawn. Like-named read-outs stand apart in the source and are kept apart here.

Data set [1] has as its system CLB70 (canine B-cell chronic leukemia). The experiment in a line: Antiproliferative activity (formazan viability). In kind it is cell-based. To be noted: mean ± SD. How it is done:
(§1) The GL-1 (canine B-cell leukemia) was obtained from Yasuhito Fujino and Hajime Tsujimoto from the Department of Veterinary Internal Medicine University of Tokyo [27], the CLB70 (canine B-cell chronic leukemia) was described earlier by Pawlak et al.. The GL-1 cells were maintained in RPMI 1640 medium with 10% fetal bovine serum (FBS), 100 µg/mL streptomycin, 100 U/mL penicillin and 2 mM L-glutamine (Sigma-Aldrich, Stainheim, Germany). The CLB70 cell line was maintained in Advanced RPMI (Gibco) medium with 100 µg/mL streptomycin, 100 U/mL penicillin and 20% heat-inactivated FBS. Cells were cultured at 37 °C in the incubator with 95% humidified atmosphere and 5% CO2. The antiproliferative activity was tested according to the procedure described previously. The tested lactones were prepared within a concentration range of 6.25–50 µg/mL in the culture medium (DMSO concentration was less than 1% in each dilution). The activity curves used to calculate IC50 are presented in the (Supplementary information Figures S7–S18). The optical density of formed formazan in untreated control cells was assigned as 100%. Viability of test samples was calculated as: % Viability = (average OD for test group/average OD for control group) × 100. The results were determined from more than 3 independent experiments (four wells each) and presented as mean IC50 value ± SD.

The test system of data set [2] is GL-1 (canine B-cell leukemia). The experiment in a line: Antiproliferative activity (formazan viability). Type of data set: cell-based. To be noted: GL-1 cell line, mean ± SD. The procedure: as §1
In data set [3] the test system is Proteus mirabilis ATCC 35659. Put plainly: Disc diffusion antimicrobial test. In kind it is cell-based. The settings on record: includes 6 mm disc, 24 h at 37 °C, racemic compounds. (A growth-free zone around the sample is the usual read-out of agar diffusion tests.)
For data set [4], the system named is Bacillus cereus ATCC 10876. Put plainly: Disc diffusion antimicrobial test. In kind it is cell-based. To be noted: includes 6 mm disc, 24 h at 37 °C, racemic compounds. The procedure: (§2) The antimicrobial activity of racemic halolactones were tested towards three bacterial strains classified as Gram-negative (Escherichia coli ATCC 25922, Pseudomonas aeruginosa ATCC 27853, Proteus mirabilis ATCC […]) and Gram-positive (Bacillus cereus ATCC 10876) and two fungal strains (Candida albicans ATCC 10231 and Aspergillus brasiliensis ATCC 16404). The microorganisms were supplied by Pasteur Institute of Algiers (Algeria).
(§3) The tests were carried out using the disc diffusion method. Briefly, overnight microbial cultures were adjusted to 0.5 MacFarland turbidity standards and spread in Petri dishes containing Mueller–Hinton and Sabouraud media for bacteria and fungi, respectively. The paper discs (6 mm diameter) was sterilized and impregnated with lactone dissolved in DMSO. Then, the discs were placed on the inoculated agar. The negative controls were discs immersed in pure DMSO. The plates were incubated for 24 h at 37 °C (bacteria) and for 48 h at 25 °C (yeast) and 5–7 days for fungi. Then, the inhibition zone diameters were determined in millimeters (including disc diameter of 6 mm). The test was carried out in triplicates.

Data set [5] relates to Escherichia coli ATCC 25922. Put plainly: Disc diffusion antimicrobial test. Type of data set: cell-based. To be noted: includes 6 mm disc, 24 h at 37 °C, racemic compounds. How it is done:
as §2, §3

Where [6] appears, read: Canis lupus familiaris, CLB70, CLB70 cell line, read-out: IC50.
The mark [7] stands for this setting: Canis lupus familiaris, B-cell, read-out: IC50.

In turn, `C[C@@H](I)[C@]12CCCC[C@H]1CC(=O)O2` [6a, (−)-(1S,6S,1′R)-1-(1′-Iodoethyl)-9-oxabicyclo[4.3.0]nonan-8-one] came in with a melting point of 104 to 107 °C. Besides, the IC50 in data set [1] (setting [6]) stood at 19.6 ± 0.51 µg/mL (≈ 66.6 µM). For the same compound, in data set [2] (setting [7]), the IC50 worked out at 13.8 ± 1.08 µg/mL (≈ 46.8 µM).

Take `C[C@H](Br)[C@@]12CCCC[C@@H]1CC(=O)O2` [7b, (+)-(1R,6R,1′S)-1-(1′-Bromoethyl)-9-oxabicyclo[4.3.0]nonan-8-one]: the IC50 in data set [1] (setting [6]) was 28.6 ± 4.89 µg/mL (≈ 116 µM); in data set [2] (setting [7]), 14.9 ± 1.93 µg/mL (≈ 60.5 µM).

For the compound `C[C@@H](Cl)[C@]12CCCC[C@H]1CC(=O)O2` [8a, (−)-(1S,6S,1′R)-1-(1′-Chloroethyl)-9-oxabicyclo[4.3.0]nonan-8-one], the melting point was 37 to 40 °C. Further, the IC50 in data set [1] (setting [6]) stood at 23.9 ± 5.14 µg/mL (≈ 118 µM). In addition, the IC50 in data set [2] (setting [7]) is 17.2 ± 3.62 µg/mL (≈ 84.7 µM).

As to `CC(Br)C12CCCCC1CC(=O)O2` (racemic) [rac-7, 1-(1′-Bromoethyl)-9-Oxabicyclo[4.3.0]nonan-8-one], in data set [3], the “diameter of inhibition zone” value was determined as 12 ± 0.35 mm. The inhibition zone in data set [4] is reported as 8 ± 0.00 mm; in data set [5] it was 9 ± 0.00 mm.

Regarding `C[C@H](Cl)[C@@]12CCCC[C@@H]1CC(=O)O2` [8b, (+)-(1R,6R,1′S)-1-(1′-Chloroethyl)-9-oxabicyclo[4.3.0]nonan-8-one], the IC50 amounted to 18.43 ± 1.46 µg/mL (≈ 90.9 µM) in data set [1] (CLB70 cell line), 11.4 ± 0.4 µg/mL (≈ 56.2 µM) in data set [1] (setting [6]), 18.4 ± 1.46 µg/mL (≈ 90.9 µM) in data set [2] (setting [7]) and 11.40 ± 0.40 µg/mL (≈ 56.2 µM) in data set [2].

For the compound `COc1cc([C@@H]2c3cc4c(cc3[C@@H](O[C@@H]3O[C@@H]5CO[C@@H](C)O[C@H]5[C@H](O)[C@H]3O)[C@H]3COC(=O)[C@H]23)OCO4)cc(OC)c1O` [Etoposide, reference compound], the IC50 in data set [1] (setting [6]) stood at 14.3 ± 2.83 µg/mL (≈ 24.3 µM); in data set [2] (setting [7]) it was 4.4 ± 1.14 µg/mL (≈ 7.48 µM).

Consider `CC(Cl)C12CCCCC1CC(=O)O2` (centres unmarked) [compound 8, 1-(1′-Chloroethyl)-9-Oxabicyclo[4.3.0]nonan-8-one], for which the “diameter of inhibition zone” value in data set [3] was 12 ± 0.00 mm.

Turning to `C[C@H](I)[C@@]12CCCC[C@@H]1CC(=O)O2` [6b, (+)-(1R,6R,1′S)-1-(1′-Iodoethyl)-9-oxabicyclo[4.3.0]nonan-8-one], the IC50 was 19.93 ± 0.07 µg/mL (≈ 67.8 µM) in data set [1] (setting [6]) and 14.5 ± 2.38 µg/mL (≈ 49.4 µM) in data set [2] (setting [7]).

For the compound `C[C@@H](Br)[C@]12CCCC[C@H]1CC(=O)O2` [7a, (−)-(1S,6S,1′R)-1-(1′-Bromoethyl)-9-oxabicyclo[4.3.0]nonan-8-one], the melting point fell in the range of 44 to 48 °C. Besides, the IC50 in data set [1] (setting [6]) is 19.4 ± 0.35 µg/mL (≈ 78.5 µM). Also, the IC50 in data set [2] (setting [7]) was 15.6 ± 0.79 µg/mL (≈ 62.9 µM).

For the compound `CC(I)C12CCCCC1CC(=O)O2` (racemic) [rac-6, 1-(1′-Iodoethyl)-9-Oxabicyclo[4.3.0]nonan-8-one], the “diameter of inhibition zone” value in data set [3] is on record as 11 ± 0.00 mm. The inhibition zone in data set [4] stood at 12 ± 0.00 mm; in data set [5], 7 ± 0.00 mm.
